Laboratory results as given in patent publication US20240182420A1, “MICROBIOCIDAL ISONICOTINIC AMIDE DERIVATIVES” (SYNGENTA CROP PROTECTION AG, priority 2021, published 2024).

Experiments:
[1] = system: Botryotinia fuckeliana syn. Botrytis cinerea; assay: Botryotinia fuckeliana syn. Botrytis cinerea (gray mould), liquid culture growth inhibition; type: cell-based; conditions: PDB nutrient broth, 24° C., 72 hrs, photometric, vs untreated control
Method: (§1) Conidia of the fungus from cryogenic storage were directly mixed into nutrient broth (PDB potato dextrose broth). A DMSO solution of the test compounds was placed into a microtiter plate (96-well format) and the nutrient broth containing the fungal spores was added to it. The test plates were incubated at 24° C. and the inhibition of growth was determined photometrically after 72 hrs.

[2] = system: Glomerella lagenarium syn Colletotrichum lagenarium; assay: Glomerella lagenarium syn. Colletotrichum lagenarium (anthracnose), liquid culture growth inhibition; type: cell-based; conditions: Colletotrichum orbiculare, PDB nutrient broth, 24° C., 72 hrs, 620 nm, vs untreated control
Method: as §1, with “hrs at 620 nm.” for “hrs.”

| SMILES | inhibition of growth at 20 ppm [1] | inhibition of growth at 20 ppm [2] |
| --- | --- | --- |
| Cc1cc(C(=O)NCC2(c3ccc(Cl)cc3Cl)CC2)c(Oc2cccc(C3CC3)c2)cn1 [Compound 1.90, 5-(3-cyclopropyl-phenoxy)-N-[[1-(2,4-dichlorophenyl)cyclopropyl]methyl]-2-methyl-pyridine-4-carboxamide] | ≥ 80% | ≥ 80% |
| O=C(NCC(F)c1ccc(Cl)cc1Cl)c1cc(Cl)ncc1Oc1ccccc1 (stereo not shown) [Compound 1.67, 2-chloro-N-[2-(2,4-dichlorophenyl)-2-fluoro-ethyl]-5-phenoxy-pyridine-4-carboxamide] | ≥ 80% | – |
| Cc1cc(C(=O)NC[C@H](F)c2ccc(Cl)cc2Cl)c(Oc2cccc(C3CC3)c2)cn1 [Compound 1.42, 5-(3-cyclopropyl-phenoxy)-N-[(2R)-2-(2,4-dichlorophenyl)-2-fluoro-ethyl]-2-methyl-pyridine-4-carboxamide] | ≥ 80% | ≥ 80% |
| COc1ccc(CCNC(=O)c2cc(Cl)ncc2Oc2cccc(C)c2)cc1 [Compound 1.55, 2-chloro-N-[2-(4-methoxyphenyl)ethyl]-5-(3-methylphenoxy) pyridine-4-carboxamide] | ≥ 80% | – |
| N#Cc1cncc(Oc2cccc(C3CC3)c2)c1C(=O)NCC(F)c1ccc(Cl)cc1Cl (stereo not shown) [Compound 1.97, 3-cyano-5-(3-cyclopropyl-phenoxy)-N-[2-(2,4-dichlorophenyl)-2-fluoro-ethyl]pyridine-4-carboxamide] | – | ≥ 80% |
| N#Cc1ccccc1CCNC(=O)c1cc(Cl)ncc1Oc1cccc(C2CC2)c1 [Compound 1.23, 2-chloro-N-[2-(2-cyanophenyl)ethyl]-5-(3-cyclopropyl-phenoxy)pyridine-4-carboxamide] | – | ≥ 80% |
| O=C(NCC(F)(F)c1ccccc1)c1cc(Cl)ncc1Oc1cccc(C2CC2)c1 [Compound 1.71, 2-chloro-5-(3-cyclopropyl-phenoxy)-N-(2,2-difluoro-2-phenyl-ethyl)pyridine-4-carboxamide] | ≥ 80% | ≥ 80% |
| COc1ccc(CCNC(=O)c2cc(Cl)ncc2Oc2cccc(C3CC3)c2)cc1OC [Compound 1.26, 2-chloro-5-(3-cyclopropyl-phenoxy)-N-[2-(3,4-dimethoxyphenyl)ethyl]pyridine-4-carboxamide] | – | ≥ 80% |
| Cc1cccc(Oc2cnc(Cl)cc2C(=O)NCCc2ccc(Cl)cc2)c1 [Compound 1.47, 2-chloro-N-[2-(4-chlorophenyl)ethyl]-5-(3-methylphenoxy) pyridine-4-carboxamide] | ≥ 80% | ≥ 80% |
| Cc1cc(C(=O)NCC(F)c2ccc(Cl)cc2Cl)c(Oc2cccc(C3CC3)c2)c(Cl)n1 (stereo not shown) [Compound 1.17, 2-chloro-3-(3-cyclopropyl-phenoxy)-N-[2-(2,4-dichlorophenyl)-2-fluoro-ethyl]-6-methyl-pyridine-carboxamide] | ≥ 80% | ≥ 80% |
| Cc1ccc(C(F)(F)CNC(=O)c2cc(Cl)ncc2Oc2cccc(C3CC3)c2)c(C)c1 [Compound 1.76, 2-chloro-5-(3-cyclopropyl-phenoxy)-N-[2-(2,4-dimethylphenyl)-2,2-difluoro-ethyl]pyridine-4-carboxamide] | ≥ 80% | ≥ 80% |
| Cc1cccc(Oc2cnc(Cl)cc2C(=O)NCC(F)c2ccc(F)cc2F)c1 (stereo not shown) [Compound 1.59, 2-chloro-N-[2-(2,4-difluorophenyl)-2-fluoro-ethyl]-5-(3-methylphenoxy) pyridine-4-carboxamide] | ≥ 80% | – |
| O=C(N[C@@H]1C[C@@H]1c1ccc(F)cc1)c1cc(Cl)ncc1Oc1cccc(C2CC2)c1 [Compound 1.75, 2-chloro-5-(3-cyclopropyl-phenoxy)-N-[(1R,2R)-2-(4-fluorophenyl)cyclopropyl]pyridine-4-carboxamide] | ≥ 80% | ≥ 80% |
| O=C(NCC(F)(F)c1ccc(F)cc1F)c1cc(Cl)ncc1Oc1cccc(C2CC2)c1 [Compound 1.32, 2-chloro-5-(3-cyclopropyl-phenoxy)-N-[2-(2,4-difluorophenyl)-2,2-difluoro-ethyl]pyridine-4-carboxamide] | ≥ 80% | ≥ 80% |
| O=C(NCC(F)c1ccc(Cl)cc1Cl)c1cc(Cl)ncc1Oc1ccc(F)c(F)c1 (stereo not shown) [Compound 1.62, 2-chloro-N-[2-(2,4-dichlorophenyl)-2-fluoro-ethyl]-5-(3,4-difluorophenoxy) pyridine-4-carboxamide] | ≥ 80% | – |
| Cc1cccc(Oc2cnc(Cl)cc2C(=O)NCCc2ccccc2Cl)c1 [Compound 1.54, 2-chloro-N-[2-(2-chlorophenyl)ethyl]-5-(3-methylphenoxy) pyridine-4-carboxamide] | ≥ 80% | – |
| Cc1nccc(C(=O)NCC(F)c2ccc(Cl)cc2Cl)c1Oc1cccc(C2CC2)c1 (stereo not shown) [Compound 1.12, 3-(3-cyclopropyl-phenoxy)-N-[2-(2,4-dichlorophenyl)-2-fluoro-ethyl]-2-methyl-pyridine-4-carboxamide] | – | ≥ 80% |
| Cc1ccc(CCNC(=O)c2cc(Cl)ncc2Oc2cccc(C)c2)cc1 [Compound 1.57, 2-chloro-5-(3-methylphenoxy)-N-[2-(p-tolyl)ethyl]pyridine-4-carboxamide] | ≥ 80% | ≥ 80% |
| O=C(NCCc1ccccc1)c1cc(Cl)ncc1Oc1cccc(C2CC2)c1 [Compound 1.29, 2-chloro-5-(3-cyclopropyl-phenoxy)-N-(2-phenylethyl) pyridine-4-carboxamide] | – | ≥ 80% |
| CCOc1cccc(Oc2cnc(Cl)cc2C(=O)NCC(F)c2ccc(Cl)cc2Cl)c1 (stereo not shown) [Compound 1.65, 2-chloro-N-[2-(2,4-dichlorophenyl)-2-fluoro-ethyl]-5-(3-ethoxyphenoxy) pyridine-4-carboxamide] | – | ≥ 80% |
| O=C(NCCc1ccc(F)cc1)c1cc(Cl)ncc1Oc1cccc(C2CC2)c1 [Compound 1.31, 2-chloro-5-(3-cyclopropyl-phenoxy)-N-[2-(4-fluorophenyl)ethyl]pyridine-4-carboxamide] | – | ≥ 80% |
| N#Cc1ccc(CCNC(=O)c2cc(Cl)ncc2Oc2cccc(C3CC3)c2)cc1 [Compound 1.34, 2-chloro-N-[2-(4-cyanophenyl)ethyl]-5-(3-cyclopropyl-phenoxy) pyridine-4-carboxamide] | – | ≥ 80% |
| O=C(NCCc1ccc(Cl)cc1Cl)c1cc(Cl)ncc1Oc1ccccc1 [Compound 1.45, 2-chloro-N-[2-(2,4-dichlorophenyl)ethyl]-5-phenoxy-pyridine-4-carboxamide] | ≥ 80% | – |
| O=C(NCCc1ccccc1Cl)c1cc(Cl)ncc1Oc1cccc(C2CC2)c1 [Compound 1.33, 2-chloro-N-[2-(2-chlorophenyl)ethyl]-5-(3-cyclopropyl-phenoxy)pyridine-4-carboxamide] | – | ≥ 80% |
| O=C(NCCc1ccc(Cl)cc1Cl)c1cc(C(F)(F)F)ncc1Oc1cccc(C2CC2)c1 [Compound 1.19, 5-(3-cyclopropyl-phenoxy)-N-[2-(2,4-dichlorophenyl)ethyl]-2-(trifluoromethyl) pyridine-4-carboxamide] | – | ≥ 80% |
